Laboratory results as given in PMC10800023 (Human Molecular Genetics, 2023).
Blank lines part the entries; values can stand above or below the molecule they belong to.

Assays:
[1] = Published PK data in patients; conditions: in vivo, oral, human, 0.75 mg/kg, extrapolated assuming linear increase from the lower dose
Source text: ^a Conklin […] JM, Hoffman EP, Jusko WJ, Mavroudis PD, Schwartz BD, […] LJ, Smith EC, Mah JK, Guglieri M, Nevo Y, Kuntz N, McDonald CM, Tulinius M, Ryan MM, Webster R, Castro D, Finkel RS, Smith AL, Morgenroth […], Jaros M, Shale […] JM, […], Ward […], Cornish MR, Clemens PR. […] Epub 2018 Sep 13. PMID: 30219580; PMCID: PMC6218284. […] Bashar T, Apu […]. […] Dose Response. 2018 Jul 25;16(3):1559325818783932. doi: 10.1177/1559325818783932. PMID: 30083083; PMCID: PMC6073839. ^c Assumed linear increase in AUC and Cmax from 0.25 to 0.75 mg/kg. This may be an overestimate. However, there is support for linearity in Al-Habet S, Rogers HJ. Pharmacokinetics of intravenous and oral prednisolone. Br J Clin Pharmacol. 1980 Nov;10(5):503-8. doi: 10.1111/j.1365-2125.1980.tb01796.x. PMID: 7437263; PMCID: PMC1430141. ^d https://www.accessdata.fda.gov/drugsatfda_docs/nda/2017/208684,208685[…]

[2] = test system: C57BL/6 mice; experiment: RT-qPCR of brain mRNA in WT mice (Study 3); conditions: daily for 35 days, prednisolone 15 mg/kg or vamorolone 45 mg/kg
Protocol: RNA concentration was measured by using Cytation 5 (BioTek).

[3] = in vivo; conditions: DBA/2 J, mouse, plasma, po
Protocol: The brain-to-plasma ratio was then calculated using the area under the curve (AUC) for brain exposure and the AUC for plasma exposure.

[4] = Pharmacokinetics and biodistribution in C57BL/10 mice
[5] = in vivo; conditions: C57BL/10, mouse, oral; for Kp: brain/plasma; for AUC / Cmax: plasma

- Cmax [1]: ~705 ng/mL
- AUC ([1]; read-out: AUC (Day 1)): ~7070 ng·h/mL
SMILES: C[C@]12C=CC(=O)C=C1CC[C@@H]1[C@@H]2[C@@H](O)C[C@@]2(C)[C@H]1CC[C@]2(O)C(=O)CO [Prednisolone]

- AUC ([3]; 15 mg/kg): 9350 ng·h/mL
- Cmax ([3]; 15 mg/kg): 1980 ng/mL
- AUC ([3]; 30 mg/kg): 26600 ng·h/mL
- Cmax ([3]; 30 mg/kg): 2700 ng/mL
- AUC ([3]; 45 mg/kg): 34100 ng·h/mL
- Cmax ([3]; 45 mg/kg): 3470 ng/mL
- Brain AUC ([4]; 5 mg/kg): 1418 hr∙ng/g of tissue
- Brain Cmax ([4]; 5 mg/kg): 443 ng/g of tissue
- Brain/plasma ratio based on Cmax ([4]; 5 mg/kg): 0.54
- Brain AUC ([4]; 30 mg/kg): 15538 hr∙ng/g of tissue
- Brain Cmax ([4]; 30 mg/kg): 4402 ng/g of tissue
- Kp ([5]; 5 mg/kg): 0.5
- Kp ([5]; 30 mg/kg): 0.46
- AUC ([5]; 5 mg/kg): 2850 ng·h/mL
- Cmax ([5]; 5 mg/kg): 818 ng/mL
- AUC ([5]; 30 mg/kg): 33900 ng·h/mL
- Cmax ([5]; 30 mg/kg): 8790 ng/mL
SMILES: C[C@@H]1C[C@H]2[C@@H]3CCC4=CC(=O)C=C[C@]4(C)C3=CC[C@]2(C)[C@@]1(O)C(=O)CO [Vamorolone]
- Ddrd4 mRNA levels in the CNS [2]: increased
- Fkbp5 mRNA levels in the CNS [2]: increased
